Converted amounts (≈) assume the structure as drawn. The source made the active and inactive calls. No cut-off for these calls is given here.
Columns and labels:
[1] = species: Homo sapiens; experiment: Inhibition of BACE (unknown origin) at 10 uM relative to control
[2] = system: Plasmodium falciparum; experiment: Antiplasmodial activity against sensitive Plasmodium falciparum NF54 infected in human red blood cells assessed as reduction in [3H]-hypoxanthine incorporation pretreated for 48 hrs followed by [3H]-hypoxanthine addition measured after 24 hrs by scintillation counting method; assay type: functional, organism-based
[3] = system: Plasmodium falciparum; experiment: Antimalarial activity against Plasmodium falciparum Dd2048 harbouring pfpi4k mutated loci assessed as inhibition of parasite growth pretreated for 48 hrs followed by [3H]-hypoxanthine addition measured after 24 hrs by scintillation counting method; assay type: functional, organism-based
[4] = system: Plasmodium falciparum; experiment: Antimalarial activity against DDD107498 resistant Plasmodium falciparum Dd2 harbouring pfeef2 mutated loci assessed as inhibition of parasite growth pretreated for 48 hrs followed by [3H]-hypoxanthine addition measured after 24 hrs by scintillation counting method; assay type: functional, organism-based
[5] = system: Plasmodium falciparum; experiment: Antimalarial activity against ELQ300 resistant Plasmodium falciparum Dd2 harbouring pfcytB mutated loci assessed as inhibition of parasite growth pretreated for 48 hrs followed by [3H]-hypoxanthine addition measured after 24 hrs by scintillation counting method; assay type: functional, organism-based
[6] = system: Plasmodium falciparum; experiment: Antimalarial activity against KAF156 resistant Plasmodium falciparum Dd2 harbouring pf-carl mutated loci assessed as inhibition of parasite growth pretreated for 48 hrs followed by [3H]-hypoxanthine addition measured after 24 hrs by scintillation counting method; assay type: functional, organism-based
[7] = molecular target: T1, Plasmepsin X (Plasmodium falciparum (isolate 3D7), UniProt Q8IAS0); experiment: Inhibition of PMX in Plasmodium falciparum 3D7 HA epitope
T1 sequence (Q8IAS0 whole entry): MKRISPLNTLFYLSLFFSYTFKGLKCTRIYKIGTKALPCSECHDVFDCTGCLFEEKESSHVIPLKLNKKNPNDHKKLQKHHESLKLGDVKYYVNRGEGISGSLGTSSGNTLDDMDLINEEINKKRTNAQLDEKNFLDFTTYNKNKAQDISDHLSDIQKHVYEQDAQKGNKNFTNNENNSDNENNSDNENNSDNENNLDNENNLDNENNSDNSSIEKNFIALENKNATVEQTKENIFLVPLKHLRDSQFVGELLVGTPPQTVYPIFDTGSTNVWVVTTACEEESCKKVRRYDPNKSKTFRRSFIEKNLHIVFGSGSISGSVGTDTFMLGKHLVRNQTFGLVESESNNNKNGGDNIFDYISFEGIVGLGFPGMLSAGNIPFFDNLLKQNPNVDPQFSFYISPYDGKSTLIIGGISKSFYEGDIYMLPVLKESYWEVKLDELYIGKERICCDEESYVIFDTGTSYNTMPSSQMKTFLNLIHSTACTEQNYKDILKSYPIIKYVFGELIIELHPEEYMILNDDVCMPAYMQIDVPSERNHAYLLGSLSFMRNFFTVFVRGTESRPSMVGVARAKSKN

[8] = molecular target: T2, Plasmepsin IX (Plasmodium falciparum, UniProt Q8ILG2); experiment: Inhibition of PMIX in Plasmodium falciparum 3D7 HA epitope
T2 sequence (Q8ILG2 whole entry): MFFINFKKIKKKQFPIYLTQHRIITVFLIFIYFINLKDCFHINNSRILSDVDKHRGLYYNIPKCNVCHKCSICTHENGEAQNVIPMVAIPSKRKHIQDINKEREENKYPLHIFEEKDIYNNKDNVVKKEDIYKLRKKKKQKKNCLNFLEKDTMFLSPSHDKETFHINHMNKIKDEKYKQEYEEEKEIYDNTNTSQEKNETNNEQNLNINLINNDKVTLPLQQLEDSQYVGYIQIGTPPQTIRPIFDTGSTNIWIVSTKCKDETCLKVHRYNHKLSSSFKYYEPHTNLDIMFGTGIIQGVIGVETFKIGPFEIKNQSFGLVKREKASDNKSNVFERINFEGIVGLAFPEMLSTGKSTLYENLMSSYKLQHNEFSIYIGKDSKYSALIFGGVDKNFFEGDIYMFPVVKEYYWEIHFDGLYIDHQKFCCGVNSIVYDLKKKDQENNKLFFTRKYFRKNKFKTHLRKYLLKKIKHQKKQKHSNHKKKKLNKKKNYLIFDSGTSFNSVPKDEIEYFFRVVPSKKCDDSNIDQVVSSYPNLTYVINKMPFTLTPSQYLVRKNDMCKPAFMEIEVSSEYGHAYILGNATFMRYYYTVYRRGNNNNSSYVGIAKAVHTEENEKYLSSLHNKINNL

[9] = Clearance in Cynomolgus monkey blood at 1 mg/kg, iv measured at 2 to 72 hrs by LC-MS/MS analysis; assay type: ADME, organism-based, Macaca fascicularis; details: whole blood, time 2-72 hrs
[10] = AUC in Cynomolgus monkey blood at 1 mg/kg, iv measured at 2 to 72 hrs by LC-MS/MS analysis; assay type: ADME, organism-based, Macaca fascicularis; parameters: dose 1 mg/kg, time 2-72 hrs, route iv; details: whole blood
[11] = Terminal half life in Cynomolgus monkey blood at 1 mg/kg, iv measured at 2 to 72 hrs by LC-MS/MS analysis; assay type: ADME, organism-based, Macaca fascicularis; details: whole blood, time 2-72 hrs, read-out: beta t1/2 (converted)
[12] = Cardiotoxicity in anesthetized guinea-pig assessed as QRS widening at 1600 nM; assay type: toxicity, Cavia porcellus; details: 1.6 µM
[13] = fAUC in Han Wistar rat at 1000 mg/kg, po administered every other day for 7 days; assay type: ADME, organism-based; details: in vivo, 168 h, time 7 day
[14] = AUC in Han Wistar rat at 1000 mg/kg, po administered every other day for 7 days; assay type: ADME, organism-based; parameters: dose 1000 mg/kg, time 7 day, route po; details: in vivo, 168 h
[15] = fCmax in Han Wistar rat at 1000 mg/kg, po administered every other day for 7 days; assay type: ADME, organism-based; details: in vivo, 168 h, time 7 day
[16] = Toxicity in Han Wistar rat assessed as effect on pupillary reflex at 250 to 1000 mg/kg, po administered every other day for 7 days; assay type: organism-based; details: in vivo, 168 h, dose 250-1000 mg/kg, time 7 day
[17] = Toxicity in Han Wistar rat assessed as body weight gain at 250 to 1000 mg/kg, po administered every other day for 7 days; assay type: organism-based; details: in vivo, 168 h, dose 250-1000 mg/kg, time 7 day
[18] = Toxicity in Han Wistar rat assessed as structural changes in retina at 250 to 1000 mg/kg, po administered every other day for 7 days; assay type: organism-based; details: in vivo, 168 h, dose 250-1000 mg/kg, time 7 day
[19] = Toxicity in Han Wistar rat assessed as effect on implicit times and latency at 1000 mg/kg, po administered every other day for 7 days by ERG analysis; assay type: organism-based; details: in vivo, 168 h, time 7 day
[20] = molecular target: T1, Plasmepsin X; experiment: biochemical
Description: Inhibition of Plasmodium falciparum recombinant C-terminal TEV cleavable 8his-tagged PMX by FRET assay

[21] = Drug metabolism in Cynomolgus monkey hepatocytes assessed as (S)-6-(2-chloro-3-((6-cyclopropylpyridin-3-yl)amino)phenyl)-2-imino-6-methyl-3-((2S,4S)-2-methyltetrahydro-2H-pyran-4-yl)tetrahydropyrimidin-4(1H)-one metabolite formation; assay type: ADME, cell-based, Macaca fascicularis, Hepatocyte
[22] = Solubility of the compound in FeSSIF at pH 5.8; assay type: physicochemical; details: simulated gi fluid
[23] = system: Plasmodium falciparum; experiment: Resistance development in asexual blood stage Plasmodium falciparum Dd2-B2 assessed as minimum inoculum of resistance at 3 times IC50 measured on day 30 using at 2 x 10^7 inoculum by SYBR dye based flow cytometry; assay type: functional, organism-based; details: time 30.0 day
[24] = system: Plasmodium falciparum; experiment: Antimalarial activity against Plasmodium falciparum infected NSG mouse model at 50 mg/kg, po administered daily for 3 days; assay type: functional, organism-based; details: time 3.0 day
[25] = system: Plasmodium falciparum; experiment: Antimalarial activity against blood stage Plasmodium infected in NSG mouse model assessed as parasite recrudescence by measuring parasitemia at 50 mg/kg, po measured 60 days by flow cytometry; assay type: functional, organism-based; details: time 60.0 day
[26] = system: Plasmodium berghei; experiment: Antimalarial activity against Plasmodium berghei sporozoites infected in naive C57B/6 liver mouse model assessed as decrease in liver infection at 50 mg/kg, po administered twice daily for 1 to 2 days by Giemsa staining based microscopic analysis; assay type: functional, organism-based; details: time 1-2 day
[27] = system: Plasmodium berghei; experiment: Antimalarial activity against luciferase expressing Plasmodium berghei sporozoites infected in naive C57B/6 liver mouse model assessed as decrease in liver infection at 50 mg/kg, po administered once daily on day 8 by Giemsa staining based microscopic analysis; assay type: functional, organism-based; details: time 8.0 day
[28] = Lipophilicity, logD of compound at pH 7.4; assay type: physicochemical; details: buffer
[29] = Solubility of the compound in FeSSIF; assay type: physicochemical; details: simulated gi fluid
[30] = Drug metabolism in dog hepatocytes assessed as (S)-6-(2-chloro-3-((6-cyclopropylpyridin-3-yl)amino)phenyl)-2-imino-6-methyltetrahydropyrimidin-4(1H)-one metabolite formation; assay type: ADME, cell-based, Canis lupus familiaris, Hepatocyte
[31] = Drug metabolism in Cynomolgus monkey hepatocytes assessed as (S)-6-(2-chloro-3-((6-cyclopropylpyridin-3-yl)amino)phenyl)-2-imino-6-methyltetrahydropyrimidin-4(1H)-one metabolite formation; assay type: ADME, cell-based, Macaca fascicularis, Hepatocyte

For `C[C@H]1C[C@@H](N2C(=N)N[C@](C)(c3cccc(NC(=O)c4cccc(C#N)c4)c3Cl)CC2=O)CCO1`, the inhibition [1] was 64%, the IC50 [2] was 34.6 nM and the IC50 [3] was 20 nM. The IC50 [4] was 22 nM, the IC50 [5] was 17 nM and the IC50 [6] was 19 nM. It also gave an IC50 [7] of 7 nM, an IC50 [8] of 142 nM and a clearance [9] of 18.9 mL/min/kg. The AUC [10] was 1.91 µM·h, the half-life [11] was 246 min and the Activity [12] was “Non-Toxic”. It also gave a fAUC [13] of 908 µM·h, an AUC [14] of 2182 µM·h and a fCmax [15] of 11 µM. For the same compound, the Activity [16] was “Non-Toxic”, the Activity [17] was “Non-Toxic” and the Activity [18] was “Non-Toxic”. For the same compound, the Activity [19] was “Non-Toxic” and the IC50 [20] was 7 nM.
For `C[C@H]1C[C@@H](N2C(=N)N[C@](C)(c3cccc(Nc4ccc(C5CC5)nc4)c3Cl)CC2=O)CCO1`, the Drug metabolism [21] was “Metabolite_Detected”, the solubility [22] was 959 µM (≈ 449 µg/mL) and the Activity [23] was “Active”. The Activity [24] was “Active”, the Activity [25] was “Active” and the Activity [26] was “Active”. The Activity [27] was “Active”, the logD [28] was 2.5 and the solubility [29] was 960 µM (≈ 449 µg/mL). For the same compound, the Drug metabolism [30] was “Metabolite_Detected” and the Drug metabolism [31] was “Metabolite_Detected”.
